Laboratory results from patent publication US20220009920A1 (GB005, Inc., priority 2020, published 2022).

Tests used:
Test in all cases: Large panel kinase profiling
Type in all cases: biochemical
Conditions in all cases: 1 μM test article, 1 mM ATP
AAK1 = AAK1 (Homo sapiens, UniProt Q2M2I8)
In short: (§1)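 Profiling across the panel relied on the PhosphoSens CSox-Sensor format. A compound concentration of 1 μM and an ATP level of 1 mM were used throughout.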

DDR1 = molecular target: T1, DDR1 (Homo sapiens, UniProt Q08345)
T1 construct: AssayQuant Technologies, Inc. (service laboratory)
In short: as §1

IKBKE/IKKE = molecular target: T2, IKBKE/IKKE (Homo sapiens, UniProt Q14164)
T2 construct: AssayQuant Technologies, Inc. (service provider)
T2 sequence (Q14164 1-716): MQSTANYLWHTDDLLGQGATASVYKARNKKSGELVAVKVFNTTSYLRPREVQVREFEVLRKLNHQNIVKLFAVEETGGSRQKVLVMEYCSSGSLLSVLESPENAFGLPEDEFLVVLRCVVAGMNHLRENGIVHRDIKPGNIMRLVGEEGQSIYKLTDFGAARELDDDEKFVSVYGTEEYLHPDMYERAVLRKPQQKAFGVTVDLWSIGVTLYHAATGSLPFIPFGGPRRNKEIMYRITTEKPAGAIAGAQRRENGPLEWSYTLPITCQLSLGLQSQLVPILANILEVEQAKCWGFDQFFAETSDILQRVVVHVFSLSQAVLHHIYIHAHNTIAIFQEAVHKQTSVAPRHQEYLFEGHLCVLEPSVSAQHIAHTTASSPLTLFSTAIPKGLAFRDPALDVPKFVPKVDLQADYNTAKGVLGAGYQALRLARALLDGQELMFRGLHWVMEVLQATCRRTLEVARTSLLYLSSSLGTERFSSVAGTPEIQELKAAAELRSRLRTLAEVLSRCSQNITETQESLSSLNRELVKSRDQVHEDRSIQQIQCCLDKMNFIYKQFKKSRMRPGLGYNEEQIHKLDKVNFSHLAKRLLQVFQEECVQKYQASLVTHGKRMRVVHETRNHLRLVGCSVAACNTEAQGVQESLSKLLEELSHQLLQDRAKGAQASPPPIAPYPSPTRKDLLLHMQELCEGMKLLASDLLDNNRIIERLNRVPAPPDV
In short: as §1

MAP4K1/HPK1 = molecular target: T3, MAP4K1/HPK1 (Homo sapiens, UniProt Q92918)
T3 construct: AssayQuant Technologies, Inc. (service provider)
In short: as §1

PKN2 = PKN2 (Homo sapiens, UniProt Q16513)
In short: as §1

PLK1 = PLK1 (Homo sapiens, UniProt P53350)
In short: as §1

PRKCA/PKCA = PRKCA/PKCA (Homo sapiens, UniProt P17252)
In short: as §1

RPS6KA2/RSK3 = RPS6KA2/RSK3 (Homo sapiens, UniProt Q15349)
In short: as §1

SK1 = molecular target: T4, SK1 (Homo sapiens, UniProt P57059)
T4 construct: AssayQuant Technologies, Inc. (contract assay)
In short: as §1

ULK2 = molecular target: T5, ULK2 (Homo sapiens, UniProt Q8IYT8)
T5 construct: AssayQuant Technologies, Inc. (contract laboratory that ran the panel)
T5 sequence (Q8IYT8 1-1036): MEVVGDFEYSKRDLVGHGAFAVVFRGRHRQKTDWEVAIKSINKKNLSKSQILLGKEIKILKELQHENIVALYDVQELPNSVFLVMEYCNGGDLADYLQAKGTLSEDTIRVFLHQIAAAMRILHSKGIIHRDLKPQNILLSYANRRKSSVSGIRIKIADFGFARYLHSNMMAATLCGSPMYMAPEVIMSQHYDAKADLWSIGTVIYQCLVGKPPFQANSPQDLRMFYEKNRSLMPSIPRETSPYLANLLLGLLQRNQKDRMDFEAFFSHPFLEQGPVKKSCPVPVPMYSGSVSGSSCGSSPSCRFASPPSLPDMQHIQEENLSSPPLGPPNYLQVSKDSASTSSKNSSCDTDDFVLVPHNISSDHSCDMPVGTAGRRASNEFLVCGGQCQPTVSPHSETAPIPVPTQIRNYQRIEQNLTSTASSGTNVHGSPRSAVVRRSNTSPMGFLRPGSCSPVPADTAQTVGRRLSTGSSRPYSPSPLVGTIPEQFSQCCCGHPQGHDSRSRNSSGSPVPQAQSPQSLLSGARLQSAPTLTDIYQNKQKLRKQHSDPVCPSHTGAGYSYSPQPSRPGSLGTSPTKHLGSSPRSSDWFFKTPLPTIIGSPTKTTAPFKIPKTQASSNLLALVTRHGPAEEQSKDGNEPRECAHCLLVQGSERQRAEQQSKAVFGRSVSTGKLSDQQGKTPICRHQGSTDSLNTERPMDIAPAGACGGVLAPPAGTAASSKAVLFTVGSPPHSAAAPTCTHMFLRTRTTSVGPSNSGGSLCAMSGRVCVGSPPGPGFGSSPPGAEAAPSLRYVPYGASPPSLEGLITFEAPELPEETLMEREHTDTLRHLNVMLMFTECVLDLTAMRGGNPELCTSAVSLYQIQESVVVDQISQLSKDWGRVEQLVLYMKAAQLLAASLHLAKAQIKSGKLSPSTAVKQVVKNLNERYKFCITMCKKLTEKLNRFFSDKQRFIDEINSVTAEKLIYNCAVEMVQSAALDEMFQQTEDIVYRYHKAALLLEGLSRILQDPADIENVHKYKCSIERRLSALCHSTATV
In short: as §1

Chain of AAK1 (Q2M2I8 whole entry): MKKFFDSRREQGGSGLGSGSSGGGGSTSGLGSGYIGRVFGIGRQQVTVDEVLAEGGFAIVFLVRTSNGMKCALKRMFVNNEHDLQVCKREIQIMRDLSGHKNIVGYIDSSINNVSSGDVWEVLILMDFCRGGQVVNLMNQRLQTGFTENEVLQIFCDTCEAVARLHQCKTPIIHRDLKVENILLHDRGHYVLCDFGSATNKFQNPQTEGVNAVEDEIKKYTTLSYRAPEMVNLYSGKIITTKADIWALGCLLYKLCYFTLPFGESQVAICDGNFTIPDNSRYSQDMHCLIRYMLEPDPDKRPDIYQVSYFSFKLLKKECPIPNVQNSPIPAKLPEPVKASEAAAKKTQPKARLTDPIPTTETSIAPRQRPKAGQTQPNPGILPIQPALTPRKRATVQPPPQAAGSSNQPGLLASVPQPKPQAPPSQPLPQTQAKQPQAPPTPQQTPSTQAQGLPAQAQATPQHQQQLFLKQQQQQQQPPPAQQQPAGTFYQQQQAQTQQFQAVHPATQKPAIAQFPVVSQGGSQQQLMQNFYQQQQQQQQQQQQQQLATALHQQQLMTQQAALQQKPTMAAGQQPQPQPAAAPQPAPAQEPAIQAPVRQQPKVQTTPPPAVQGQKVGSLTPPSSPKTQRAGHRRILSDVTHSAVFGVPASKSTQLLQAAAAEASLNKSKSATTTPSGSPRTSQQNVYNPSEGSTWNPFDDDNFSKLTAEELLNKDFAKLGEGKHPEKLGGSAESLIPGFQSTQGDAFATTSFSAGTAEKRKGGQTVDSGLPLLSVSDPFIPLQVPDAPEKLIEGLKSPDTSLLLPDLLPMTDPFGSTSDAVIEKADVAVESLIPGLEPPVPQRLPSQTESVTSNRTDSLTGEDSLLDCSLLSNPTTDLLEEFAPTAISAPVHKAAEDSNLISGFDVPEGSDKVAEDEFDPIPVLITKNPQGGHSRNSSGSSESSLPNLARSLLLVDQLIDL
T3 sequence (Q92918 whole entry): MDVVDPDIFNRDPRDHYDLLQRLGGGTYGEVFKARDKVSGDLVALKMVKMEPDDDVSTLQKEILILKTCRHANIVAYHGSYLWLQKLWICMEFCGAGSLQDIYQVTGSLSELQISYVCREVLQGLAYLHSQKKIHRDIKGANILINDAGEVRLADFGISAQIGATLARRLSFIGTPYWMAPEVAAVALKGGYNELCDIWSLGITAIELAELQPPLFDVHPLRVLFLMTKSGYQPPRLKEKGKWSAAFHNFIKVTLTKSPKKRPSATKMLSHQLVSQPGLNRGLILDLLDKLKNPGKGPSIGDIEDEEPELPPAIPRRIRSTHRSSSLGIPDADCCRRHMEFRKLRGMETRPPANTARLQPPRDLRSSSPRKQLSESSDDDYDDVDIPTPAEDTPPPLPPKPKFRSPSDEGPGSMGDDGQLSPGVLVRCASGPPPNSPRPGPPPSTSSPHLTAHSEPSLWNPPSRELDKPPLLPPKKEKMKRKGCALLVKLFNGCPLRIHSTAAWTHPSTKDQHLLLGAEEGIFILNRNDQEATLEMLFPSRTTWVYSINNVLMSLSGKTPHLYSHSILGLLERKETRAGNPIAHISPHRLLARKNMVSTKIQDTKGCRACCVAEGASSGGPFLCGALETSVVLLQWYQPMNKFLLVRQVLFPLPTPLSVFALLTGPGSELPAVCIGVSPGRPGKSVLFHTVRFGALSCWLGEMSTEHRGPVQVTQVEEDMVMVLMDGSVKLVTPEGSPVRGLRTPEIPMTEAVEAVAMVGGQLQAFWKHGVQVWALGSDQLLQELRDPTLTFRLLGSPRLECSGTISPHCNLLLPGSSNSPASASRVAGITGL
Chain of PKN2 (Q16513 whole entry, species assumed): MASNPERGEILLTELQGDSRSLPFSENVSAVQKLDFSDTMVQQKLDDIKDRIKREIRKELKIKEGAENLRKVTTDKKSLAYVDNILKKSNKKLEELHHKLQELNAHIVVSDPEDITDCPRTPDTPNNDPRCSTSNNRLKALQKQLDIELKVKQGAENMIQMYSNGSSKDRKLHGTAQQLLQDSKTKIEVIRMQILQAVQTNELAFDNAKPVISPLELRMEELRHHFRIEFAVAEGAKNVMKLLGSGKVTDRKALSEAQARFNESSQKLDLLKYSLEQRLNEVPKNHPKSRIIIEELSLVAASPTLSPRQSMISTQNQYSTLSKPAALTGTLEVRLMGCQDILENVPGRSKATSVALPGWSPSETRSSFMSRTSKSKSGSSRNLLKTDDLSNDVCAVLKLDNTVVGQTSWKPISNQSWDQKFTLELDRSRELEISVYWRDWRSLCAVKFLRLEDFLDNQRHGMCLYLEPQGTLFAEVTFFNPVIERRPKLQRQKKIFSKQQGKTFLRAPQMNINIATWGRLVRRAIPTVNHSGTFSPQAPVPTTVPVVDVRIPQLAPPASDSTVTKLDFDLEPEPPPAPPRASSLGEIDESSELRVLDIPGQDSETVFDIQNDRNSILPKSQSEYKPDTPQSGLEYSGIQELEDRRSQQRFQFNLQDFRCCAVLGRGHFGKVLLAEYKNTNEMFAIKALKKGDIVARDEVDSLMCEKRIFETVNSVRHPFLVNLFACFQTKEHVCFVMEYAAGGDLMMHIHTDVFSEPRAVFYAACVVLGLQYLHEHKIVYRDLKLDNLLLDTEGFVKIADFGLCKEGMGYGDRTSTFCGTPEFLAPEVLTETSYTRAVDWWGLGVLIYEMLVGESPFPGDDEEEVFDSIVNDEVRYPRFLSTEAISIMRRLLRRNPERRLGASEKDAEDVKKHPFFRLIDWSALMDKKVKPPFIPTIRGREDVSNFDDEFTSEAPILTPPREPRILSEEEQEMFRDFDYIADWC
Chain of RPS6KA2/RSK3 (Q15349 whole entry): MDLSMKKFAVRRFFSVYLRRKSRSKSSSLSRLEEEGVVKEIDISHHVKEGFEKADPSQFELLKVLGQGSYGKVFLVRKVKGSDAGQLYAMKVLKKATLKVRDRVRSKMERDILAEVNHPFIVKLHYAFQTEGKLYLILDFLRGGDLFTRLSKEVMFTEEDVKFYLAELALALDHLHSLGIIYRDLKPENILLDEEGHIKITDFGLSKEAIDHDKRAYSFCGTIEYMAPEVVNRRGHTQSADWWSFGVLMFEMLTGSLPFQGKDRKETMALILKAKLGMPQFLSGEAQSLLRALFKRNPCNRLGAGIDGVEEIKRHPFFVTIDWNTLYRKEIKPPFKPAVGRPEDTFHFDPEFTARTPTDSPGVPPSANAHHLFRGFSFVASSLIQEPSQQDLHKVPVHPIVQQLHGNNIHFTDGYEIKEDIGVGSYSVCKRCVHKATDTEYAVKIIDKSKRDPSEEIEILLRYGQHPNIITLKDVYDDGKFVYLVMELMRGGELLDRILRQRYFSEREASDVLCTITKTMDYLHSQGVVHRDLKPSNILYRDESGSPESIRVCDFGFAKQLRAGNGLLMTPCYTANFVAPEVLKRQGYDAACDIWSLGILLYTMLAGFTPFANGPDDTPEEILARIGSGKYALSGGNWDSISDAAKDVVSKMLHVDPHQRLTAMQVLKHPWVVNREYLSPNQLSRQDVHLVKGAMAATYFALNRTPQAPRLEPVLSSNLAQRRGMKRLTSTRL
T1 sequence (Q08345 19-913, species assumed): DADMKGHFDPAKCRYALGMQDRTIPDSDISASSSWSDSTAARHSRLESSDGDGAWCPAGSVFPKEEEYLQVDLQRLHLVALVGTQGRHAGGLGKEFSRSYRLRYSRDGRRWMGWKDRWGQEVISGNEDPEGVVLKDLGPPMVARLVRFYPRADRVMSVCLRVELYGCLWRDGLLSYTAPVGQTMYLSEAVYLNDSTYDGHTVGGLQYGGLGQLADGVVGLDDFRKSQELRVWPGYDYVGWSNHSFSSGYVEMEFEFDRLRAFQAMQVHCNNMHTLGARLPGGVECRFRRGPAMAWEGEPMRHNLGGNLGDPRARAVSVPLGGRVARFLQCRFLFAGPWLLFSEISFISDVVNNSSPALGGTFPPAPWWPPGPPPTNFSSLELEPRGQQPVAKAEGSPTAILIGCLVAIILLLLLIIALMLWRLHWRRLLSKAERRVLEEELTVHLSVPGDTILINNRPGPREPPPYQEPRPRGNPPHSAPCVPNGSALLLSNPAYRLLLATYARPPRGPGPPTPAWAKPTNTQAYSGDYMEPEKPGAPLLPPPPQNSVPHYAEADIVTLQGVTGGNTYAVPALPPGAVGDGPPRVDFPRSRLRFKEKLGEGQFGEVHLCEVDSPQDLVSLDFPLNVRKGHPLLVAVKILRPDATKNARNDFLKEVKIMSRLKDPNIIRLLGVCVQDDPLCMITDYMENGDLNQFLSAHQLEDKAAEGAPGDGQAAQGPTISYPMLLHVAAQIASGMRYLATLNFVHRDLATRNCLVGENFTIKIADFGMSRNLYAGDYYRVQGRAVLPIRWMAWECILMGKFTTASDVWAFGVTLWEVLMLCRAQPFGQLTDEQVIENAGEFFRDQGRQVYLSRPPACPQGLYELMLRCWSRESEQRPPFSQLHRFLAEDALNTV

| SMILES | inhibition at 1 µM (AAK1) | inhibition at 1 µM (DDR1) | inhibition at 1 µM (IKBKE/IKKE) | inhibition at 1 µM (MAP4K1/HPK1) | inhibition at 1 µM (PKN2) | inhibition at 1 µM (PLK1) | inhibition at 1 µM (PRKCA/PKCA) | inhibition at 1 µM (RPS6KA2/RSK3) | inhibition at 1 µM (SK1) | inhibition at 1 µM (ULK2) |
| --- | --- | --- | --- | --- | --- | --- | --- | --- | --- | --- |
| C=CC(=O)N1CCCC(c2c(F)cc(C(N)=O)c3[nH]c4c(c23)CCCCC4)C1 (single isomer, unassigned) [Compound 5-6] | -20.3% | 1.4% | 3.4% | -3.2% | 0.7% | -6.3% | 2.3% | 1.7% | -13.6% | -17.5% |
| C=CC(=O)N1CCC[C@@H](c2c(F)cc(C(N)=O)c3[nH]c4c(c23)CC2(CC4)CC2)C1 [Compound 6-2, (S)-5-(1-acryloylpiperidin-3-yl)-6-fluoro-1,2,4,9-tetrahydrospiro[carbazole-3,1′-cyclopropane]-8-carboxamide] | -15.7% | 24.5% | -18% | 16.3% | 16.2% | -4.3% | 14.7% | -47.9% | 4.6% | -6.2% |
| C=CC(=O)N1CCC[C@@H](c2c(F)cc(C(N)=O)c3[nH]c4c(c23)CCC4)C1 [Compound 10-2, (S)-8-(1-acryloylpiperidin-3-yl)-7-fluoro-1,2,3,4-tetrahydrocyclo-penta[b]indole-5-carboxamide] | -14.3% | -41.1% | -12.8% | 0.8% | 7.5% | 13.8% | -3.5% | -38% | 13.5% | -5.8% |
